Results published in ChEMBL document CHEMBL1151184, “New diterpenes from Croton insularis” (J Nat Prod, 2004).

Experiments:
HeLa = experiment: Cytotoxicity against human HeLa cells by MTT assay; type: functional, cell-based
L1210 = experiment: Cytotoxicity against mouse L1210 cells by MTT assay; type: functional, cell-based

Row | Structure (SMILES) | IC50 (HeLa) [µM] | IC50 (L1210) [µM]
1 | CC1(C)C(=O)CC[C@@]2(C)[C@@H]3C[C@@H]4[C@@H]5C[C@@]3(CC[C@@H]12)C[C@@]45C | 131 | 103
2 | C[C@@H]1CC[C@]2(C)[C@H](CC[C@@H](O)[C@]2(C)O)[C@@]1(C)CC(=O)c1ccoc1 | > 200 | 98
3 | C[C@@]12CCC[C@@](C)(C(=O)O)[C@@H]1CC[C@@]13C[C@H]4[C@@H](C[C@H]12)[C@]4(C)C3 | 99 | 99
4 | CC1(C)[C@@H](O)CC[C@@]2(C)[C@@H]3C[C@@H]4[C@@H]5C[C@@]3(CC[C@@H]12)C[C@@]45C | > 200 | 133
5 | C[C@]1(CO)[C@@H]2CC[C@@]34C[C@H]5[C@@H](C[C@H]3[C@]2(C)CC[C@H]1O)[C@]5(C)C4 | 97 | 91
6 | C[C@@H]1CC[C@]2(C)[C@H](CC[C@@H](O)[C@]2(C)O)[C@@]12C=C(c1ccoc1)OC2 [CROTINSULARIN] | 148 | 128
